Reference: patent publication US4016158A, “Cephalosporin derivatives” (Roussel-UCLAF, priority 1971, dated 1977)
Converted amounts (≈) assume the structure as drawn. Like-named read-outs stand apart in the source and are kept apart here.

Columns and labels:
Experiment in all cases: MIC (Table II)
Format in all cases: cell-based
Shigella sonnei = settings: read-out: minimum inhibition concentration
Method: (§1) The antibiotic activity was determined by the diffusion method in a gelose medium at a pH of 7. The following Table expresses the minimum concentration of inhibition in mcg/ml (CMl) for the products against different microbial strains.
(§2) Using the same procedure as in Table I, the minimum inhibition concentration in mcg/ml was determined against different microbial strains with L(-) cis 7-[D(-)-α-aminophenylacetamido]-3-isopropyl-3-cepheme-4-carboxylic acid (product A) of Example 9.

Proteus mirabilis 8065 = settings: read-out: minimum inhibition concentration
Method: as §1, §2

[1] = test system: Staphylococcus aureus 397; settings: read-out: minimum inhibition concentration
Method: as §1, §2

Escherichia coli 9957 = settings: read-out: minimum inhibition concentration
Method: as §1, §2

Proteus mirabilis 6194 = settings: read-out: minimum inhibition concentration
Method: as §1, §2

[2] = test system: Staphylococcus aureus 889; settings: Staphylococcus aureus, 889, read-out: minimum inhibition concentration
Method: as §1, §2

[3] = test system: Salmonella brandebourg 550; settings: read-out: minimum inhibition concentration
Method: as §1, §2

Proteus mirabilis 3113 = settings: read-out: minimum inhibition concentration
Method: as §1, §2

[4] = test system: Staphylococcus aureus 9729; settings: Staphylococcus aureus, 9729, read-out: minimum inhibition concentration
Method: as §1, §2

[5] = test system: Staphylococcus aureus Frottis nasal; settings: read-out: minimum inhibition concentration
Method: as §1, §2

[6] = test system: Streptococcus hemolyticus 920; settings: Streptococcus pyogenes, read-out: minimum inhibition concentration
Method: as §1, §2

Escherichia coli 5003 = settings: read-out: minimum inhibition concentration
Method: as §1, §2

Escherichia coli 8497 = settings: read-out: minimum inhibition concentration
Method: as §1, §2

[7] = test system: Staphylococcus aureus 5880; settings: read-out: minimum inhibition concentration
Method: as §1, §2

[8] = test system: Diplococcus pneumoniae 735; settings: Streptococcus pneumoniae, read-out: minimum inhibition concentration
Method: as §1, §2

[9] = test system: Staphylococcus aureus 4546; settings: Staphylococcus aureus, 4546, read-out: minimum inhibition concentration
Method: as §1, §2

Escherichia coli 1751 = settings: read-out: minimum inhibition concentration
Method: as §1, §2

[10] = test system: Staphylococcus aureus A8P; settings: read-out: minimum inhibition concentration
Method: as §1, §2

Escherichia coli 1718 = settings: read-out: minimum inhibition concentration
Method: as §1, §2

Escherichia coli 9927 = settings: read-out: minimum inhibition concentration
Method: as §1, §2

[11] = test system: Klebsiella pneumoniae 52145; settings: read-out: minimum inhibition concentration
Method: as §1, §2

Escherichia coli 152 = settings: read-out: minimum inhibition concentration
Method: as §1, §2

Escherichia coli Taylor = settings: read-out: minimum inhibition concentration
Method: as §1, §2

[12] = test system: Staphylococcus aureus 54146; settings: read-out: minimum inhibition concentration
Method: as §1, §2

[13] = test system: Staphylococcus aureus 8514; settings: read-out: minimum inhibition concentration
Method: as §1, §2

[14] = test system: Staphylococcus aureus 9373; settings: Staphylococcus aureus, 9373, read-out: minimum inhibition concentration
Method: as §1, §2

[15] = test system: Streptococcus hemolyticus 561; settings: Streptococcus pyogenes, read-out: minimum inhibition concentration
Method: as §1, §2

[16] = test system: Staphylococcus aureus 9561; settings: read-out: minimum inhibition concentration
Method: as §1, §2

[17] = test system: Streptococcus hemolyticus 905; settings: Streptococcus pyogenes, read-out: minimum inhibition concentration
Method: as §1, §2

[18] = test system: Staphylococcus aureus 9482; settings: Staphylococcus aureus, 9482, read-out: minimum inhibition concentration
Method: as §1, §2

Proteus mirabilis 8029 = settings: read-out: minimum inhibition concentration
Method: as §1, §2

[19] = test system: Staphylococcus aureus 1098; settings: read-out: minimum inhibition concentration
Method: as §1, §2

## CC(C)C1=C(C(=O)O)N2C(=O)[C@@H](NC(=O)[C@H](N)c3ccccc3)[C@H]2SC1 [Example 9, L (+) cis 7-[D (-)-α-aminophenylacetamido]-3-isopropyl-3-cepheme-4-carboxylic acid]
Shigella sonnei; 24h
  MIC: 30 µg/mL (≈ 79.9 µM)
Shigella sonnei; 48h
  MIC: 30 µg/mL (≈ 79.9 µM)
Shigella sonnei; 72h
  MIC: 30 µg/mL (≈ 79.9 µM)
Proteus mirabilis 8065; 24h
  MIC: 60 µg/mL (≈ 160 µM)
Proteus mirabilis 8065; 48h
  MIC: > 100 µg/mL
[1]; 24h
  MIC: 2 µg/mL (≈ 5.33 µM)
[1]; 48h
  MIC: 5 µg/mL (≈ 13.3 µM)
[1]; 72h
  MIC: 10 µg/mL (≈ 26.6 µM)
Escherichia coli 9957; 24h
  MIC: 40 µg/mL (≈ 107 µM)
Escherichia coli 9957; 48h
  MIC: 100 µg/mL (≈ 266 µM)
Escherichia coli 9957; 72h
  MIC: 100 µg/mL (≈ 266 µM)
Proteus mirabilis 6194; 24h
  MIC: 60 µg/mL (≈ 160 µM)
Proteus mirabilis 6194; 48h
  MIC: 80 µg/mL (≈ 213 µM)
Proteus mirabilis 6194; 72h
  MIC: > 100 µg/mL
[2]; 24h
  MIC: 5 µg/mL (≈ 13.3 µM)
[2]; 48h
  MIC: 10 µg/mL (≈ 26.6 µM)
[2]; 72h
  MIC: 20 µg/mL (≈ 53.3 µM)
[3]; 24h
  MIC: 30 µg/mL (≈ 79.9 µM)
[3]; 48h
  MIC: 30 µg/mL (≈ 79.9 µM)
[3]; 72h
  MIC: 40 µg/mL (≈ 107 µM)
Proteus mirabilis 3113; 24h
  MIC: 100 µg/mL (≈ 266 µM)
Proteus mirabilis 3113; 48h
  MIC: > 100 µg/mL
[4]; 24h
  MIC: 2 µg/mL (≈ 5.33 µM)
[4]; 48h
  MIC: 2 µg/mL (≈ 5.33 µM)
[4]; 72h
  MIC: 5 µg/mL (≈ 13.3 µM)
[5]; 24h
  MIC: 2 µg/mL (≈ 5.33 µM)
[5]; 48h
  MIC: 3 µg/mL (≈ 7.99 µM)
[5]; 72h
  MIC: 10 µg/mL (≈ 26.6 µM)
[6]; 24h
  MIC: 2 µg/mL (≈ 5.33 µM)
[6]; 48h
  MIC: 2 µg/mL (≈ 5.33 µM)
[6]; 72h
  MIC: 3 µg/mL (≈ 7.99 µM)
Escherichia coli 5003; 24h
  MIC: 40 µg/mL (≈ 107 µM)
Escherichia coli 5003; 48h
  MIC: 40 µg/mL (≈ 107 µM)
Escherichia coli 5003; 72h
  MIC: 40 µg/mL (≈ 107 µM)
Escherichia coli 8497; 24h
  MIC: 100 µg/mL (≈ 266 µM)
Escherichia coli 8497; 48h
  MIC: 100 µg/mL (≈ 266 µM)
Escherichia coli 8497; 72h
  MIC: 100 µg/mL (≈ 266 µM)
[7]; 24h
  MIC: 2 µg/mL (≈ 5.33 µM)
[7]; 48h
  MIC: 3 µg/mL (≈ 7.99 µM)
[7]; 72h
  MIC: 10 µg/mL (≈ 26.6 µM)
[8]; 24h
  MIC: 0.4 µg/mL (≈ 1.07 µM)
[8]; 48h
  MIC: 1 µg/mL (≈ 2.66 µM)
[8]; 72h
  MIC: 1 µg/mL (≈ 2.66 µM)
[9]; 24h
  MIC: 0.6 µg/mL (≈ 1.6 µM)
[9]; 48h
  MIC: 2 µg/mL (≈ 5.33 µM)
[9]; 72h
  MIC: 3 µg/mL (≈ 7.99 µM)
Escherichia coli 1751; 24h
  MIC: 30 µg/mL (≈ 79.9 µM)
Escherichia coli 1751; 48h
  MIC: 30 µg/mL (≈ 79.9 µM)
Escherichia coli 1751; 72h
  MIC: 30 µg/mL (≈ 79.9 µM)
[10]; 24h
  MIC: 1 µg/mL (≈ 2.66 µM)
[10]; 48h
  MIC: 3 µg/mL (≈ 7.99 µM)
[10]; 72h
  MIC: 10 µg/mL (≈ 26.6 µM)
Escherichia coli 1718; 24h
  MIC: 40 µg/mL (≈ 107 µM)
Escherichia coli 1718; 48h
  MIC: 40 µg/mL (≈ 107 µM)
Escherichia coli 1718; 72h
  MIC: 60 µg/mL (≈ 160 µM)
Escherichia coli 9927; 24h
  MIC: 100 µg/mL (≈ 266 µM)
Escherichia coli 9927; 48h
  MIC: > 100 µg/mL
[11]; 24h
  MIC: 30 µg/mL (≈ 79.9 µM)
[11]; 48h
  MIC: 60 µg/mL (≈ 160 µM)
[11]; 72h
  MIC: > 100 µg/mL
Escherichia coli 152; 24h
  MIC: 30 µg/mL (≈ 79.9 µM)
Escherichia coli 152; 48h
  MIC: 30 µg/mL (≈ 79.9 µM)
Escherichia coli 152; 72h
  MIC: 40 µg/mL (≈ 107 µM)
Escherichia coli Taylor; 24h
  MIC: 40 µg/mL (≈ 107 µM)
Escherichia coli Taylor; 48h
  MIC: 40 µg/mL (≈ 107 µM)
Escherichia coli Taylor; 72h
  MIC: 60 µg/mL (≈ 160 µM)
[12]; 24h
  MIC: 1 µg/mL (≈ 2.66 µM)
[12]; 48h
  MIC: 1 µg/mL (≈ 2.66 µM)
[12]; 72h
  MIC: 2 µg/mL (≈ 5.33 µM)
[13]; 24h
  MIC: 1 µg/mL (≈ 2.66 µM)
[13]; 48h
  MIC: 2 µg/mL (≈ 5.33 µM)
[13]; 72h
  MIC: 2 µg/mL (≈ 5.33 µM)
[14]; 24h
  MIC: 1 µg/mL (≈ 2.66 µM)
[14]; 48h
  MIC: 3 µg/mL (≈ 7.99 µM)
[14]; 72h
  MIC: 5 µg/mL (≈ 13.3 µM)
[15]; 24h
  MIC: 0.6 µg/mL (≈ 1.6 µM)
[15]; 48h
  MIC: > 40 µg/mL
[16]; 24h
  MIC: 1 µg/mL (≈ 2.66 µM)
[16]; 48h
  MIC: 3 µg/mL (≈ 7.99 µM)
[16]; 72h
  MIC: 10 µg/mL (≈ 26.6 µM)
[17]; 24h
  MIC: 2 µg/mL (≈ 5.33 µM)
[17]; 48h
  MIC: 2 µg/mL (≈ 5.33 µM)
[17]; 72h
  MIC: 2 µg/mL (≈ 5.33 µM)
[18]; 24h
  MIC: 1 µg/mL (≈ 2.66 µM)
[18]; 48h
  MIC: 2 µg/mL (≈ 5.33 µM)
[18]; 72h
  MIC: 2 µg/mL (≈ 5.33 µM)
Proteus mirabilis 8029; 24h
  MIC: 60 µg/mL (≈ 160 µM)
Proteus mirabilis 8029; 48h
  MIC: > 100 µg/mL
[19]; 24h
  MIC: 0.4 µg/mL (≈ 1.07 µM)
[19]; 48h
  MIC: 1 µg/mL (≈ 2.66 µM)
[19]; 72h
  MIC: 3 µg/mL (≈ 7.99 µM)
